# Laboratory results: patent US20240132518A1, “CEPHALOSPORIN ANTIBACTERIAL COMPOUND AND PREPARATION METHOD THEREFOR” (priority 2021, published 2024)
# Like-named read-outs stand apart in the source and are kept apart here.
# Experiments:
# [1] = system: Carbapenem-resistant Acinetobacter baumannii (CRAB); test: Antibacterial MIC assay (ID-CAMHB), carbapenem-resistant Acinetobacter baumannii; format: cell-based
# Procedure: (§1) 1. The test compounds were dissolved in sterile normal saline, vortexed for uniformly mixing, and diluted in a 2-fold dilution with the sterile normal saline (11 concentration points in total). The test concentration range was 32-0.031 μg/mL, and two duplicate wells were set for each concentration. Additional wells without drug dosing were set as growth controls.
# (§2) 2. 4 μL of the diluent was added to 196 μL of the bacterial suspension in a 96-well plate (the bacterial count in the bacterial suspension was 2-8×10^5 colony forming units/mL).
# (§3) The minimum inhibitory concentration (MIC) assay was performed with reference to the Clinical and Laboratory Standards Institute (CLSI) guidelines.
# [2] = system: Carbapenem-resistant Enterobacteriaceae (CRE, Klebsiella pneumoniae); test: Antibacterial MIC assay (ID-CAMHB), carbapenem-resistant Enterobacteriaceae; format: cell-based
# Procedure: as §1, §2, §3
# [3] = Pharmacokinetic study in cynomolgus monkeys; format: in vivo; conditions: cynomolgus monkey, 10 mg/kg single intravenous infusion, plasma, individual animals; for Vd / AUC(0-inf) / AUC(0-t) / clearance / half-life / Cmax / MRT / AUC last / AUCinf / CL / t1/2: 10 mg/kg
# Procedure: An appropriate amount of a test compound was weighed precisely and added to a container, and 0.9% sodium chloride injection and 0.2 M NaOH solution were added thereto in an ice bath until the test compound was completely dissolved, so that a sample solution at a concentration of 2 mg/mL was obtained followed by storage at 2-8° C. for later use.
# • Species and strain: cynomolgus monkey • Animal grade: general grade • Animal source: Guangxi Xiongsen Primate Experimental Animal Breeding Development Co., Ltd. • Number of the using of laboratory animal: SYXK (Su) 2019-0012
# 6 cynomolgus monkeys (half male and half female) were selected and randomly divided into 3 groups with 1 animal/sex in each group. The cynomolgus monkeys were administered with the test sample at a dose of 10 mg/kg by the single intravenous infusion. Blood samples were collected from each group of animals at the following time points: before administration, and 5 min, 15 min, 0.5 h, 1 h, 2 h, 4 h, 6 h, and 8 h after administration. In the test, the concentration of each test compound in the plasma of the cynomolgus monkey was detected by the LC-MS/MS method, and the lower limits of quantification of the analysis methods for the plasma samples were all 1 μg/mL. The plasma concentration data were analyzed by the non-compartmental analysis (NCA) of the analysis software for pharmacokinetic data, WinNonlin, pharmacokinetic parameters were calculated, and pharmacokinetic characteristics of the test compounds in cynomolgus monkeys after administration were investigated, with the results shown in the following table.
# [4] = Pharmacokinetic study in ICR mice; format: in vivo; conditions: plasma; for AUC(0-inf) / AUC(0-t) / Cmax / Tmax / half-life: both sexes, mouse, sc
# Procedure: The formulation for administration was prepared on ice. A proper amount of the test compound was precisely weighed out, and a 90% volume of normal saline was slowly added. The mixture was ultrasonically stirred in an ice-water bath until no large pieces existed. After the mixture was well mixed, a 1 M NaOH solution was added in small portions using a pipette.
# • Species and strain: ICR mice • Animal grade: SPF • Animal source: Medicilon: 999M-018
# Administration by subcutaneous injection: 3 mice/sex/time point; blood samples were collected at 9 time points: 0.083 h, 0.25 h, 0.5 h, 1 h, 2 h, 4 h, 6 h, 8 h and 24 h after administration. The collected blood samples were placed in EDTA-K2 anticoagulation blood collection tubes. The collected whole blood was placed on ice and centrifuged at 6800 g at 2-8° C. for 6 min to separate plasma within 1 h. After the centrifugation, the plasma was transferred to a centrifuge tube to which a plasma stabilizer had been added in advance (plasma:concentrated phosphoric acid=100:0.2; for example, 1 μL of 10% concentrated phosphoric acid was added to 50 μL of plasma). All the animals were subjected to careful clinical observation before administration and at each of the blood collection time points after administration, and the adverse reaction symptoms in the animals were recorded.
# [5] = system: Carbapenem-resistant Pseudomonas aeruginosa (CRPA); test: Antibacterial MIC assay (ID-CAMHB), carbapenem-resistant Pseudomonas aeruginosa; format: cell-based
# Procedure: as §1, §2, §3
# [6] = system: Control strain (Escherichia coli) ATCC 25922; test: Antibacterial MIC assay (ID-CAMHB), control strain Escherichia coli; format: cell-based
# Procedure: as §1, §2, §3
# [7] = system: Control strain (Pseudomonas aeruginosa) ATCC 27853; test: Antibacterial MIC assay (ID-CAMHB), control strain Pseudomonas aeruginosa; format: cell-based
# Procedure: as §1, §2, §3
# [8] = strain FDA-CDC AR-BANK#0063, AMR gene OXA-23, OXA-65, OXA-24, sul2, read-out: MIC
# [9] = strain FDA-CDC AR-BANK#0453, AMR gene KPC-3, OmpK35, oqxA, oqxB, SHV-11, TEM-1B
# [10] = 100 mg/kg subcutaneous injection
# [11] = strain FDA-CDC AR-BANK#0036, AMR gene strB, OXA-65, OXA-24, strA, sul2, read-out: MIC
# [12] = strain FDA-CDC AR-BANK#0052, AMR gene OXA-58, OXA-100, sul2
# [13] = strain FDA-CDC AR-BANK#0070, AMR gene OXA-58, OXA-100, sul2
# [14] = strain FDA-CDC AR-BANK#0101, AMR gene strB, OXA-65, OXA-24, strA, sul2, read-out: MIC
# [15] = strain FDA-CDC AR-BANK#0361, AMR gene TEM-1, SHV-12, KPC-2
# [16] = strain FDA-CDC AR-BANK#0362, AMR gene TEM-1, SHV-11, KPC-2
# [17] = strain FDA-CDC AR-BANK#0363, AMR gene TEM-1, SHV-12, KPC-2
# [18] = strain FDA-CDC AR-BANK#0438, AMR gene aph(3′)-Ia, dfrA12, KPC-3, OmpK35, oqxA, oqxB, SHV-11
# [19] = strain FDA-CDC AR-BANK#0439, AMR gene aac(6′)-Il, aadA1b, BCR1, IMP-18, OXA-50
# [20] = strain FDA-CDC AR-BANK#0441, AMR gene KPC-2, read-out: MIC
# [21] = strain FDA-CDC AR-BANK#0444, AMR gene aac(6′)-Il, dfrB5, OXA-4, tet(G), VIM-2, read-out: MIC
# [22] = strain FDA-CDC AR-BANK#0457, AMR gene aadA6, VIM-2
# [23] = ATCC25922, ID-CAMHB, control strain ATCC 25922, read-out: MIC
# [24] = both sexes, cynomolgus, iv, read-out: Cmax
# [25] = both sexes, cynomolgus, iv, read-out: MRT
# [26] = both sexes, cynomolgus, iv, read-out: Vd
# [27] = 10 mg/kg subcutaneous injection
structure (smiles),measurement,setting,value
"CC(C)(O/N=C(\C(=O)N[C@@H]1C(=O)N2C(C(=O)[O-])=C(C[N+]3(CCNC(=O)c4ccc(O)c(O)c4Cl)CCCC3)CS[C@H]12)c1csc(N)n1)C(=O)O [Cefiderocol, reference compound]",MIC,[1]; [8],4 µg/mL
same,MIC,[2]; [9],1 µg/mL
same,Vd,[3],0.37963 L/kg
same,AUMC0-inf,[4]; [10],150.7 h · h · ug · mL^−1
same,AUMC0-t,[4]; [10],150.3 h · h · ug · mL^−1
same,Kel,[4]; [10],1.45 h⁻¹
same,MRTPO,[4]; [10],34.6 min
same,AUC(0-inf),[4]; [10],261 µg·h/mL
same,AUC(0-t),[4]; [10],261 µg·h/mL
same,Cmax,[4]; [10],363 µg/mL
same,Tmax,[4]; [10],15 min
same,half-life,[4]; [10],28.6 min
CC(C)(O/N=C(\C(=O)N[C@@H]1C(=O)N2C(C(=O)[O-])=C(C[N+]3(CCN(CCCNC(=O)c4ccc(O)c(O)c4Cl)C(=O)c4ccc(O)c(O)c4Cl)CCCC3)CS[C@H]12)c1csc(N)n1)C(=O)O [Compound 1],MIC,[1]; [11],0.25 µg/mL
same,MIC,[1]; [12],0.125 µg/mL
same,MIC,[1]; [8],32 µg/mL
same,MIC,[1]; [13],0.125 µg/mL
same,MIC,[1]; [14],1 µg/mL
same,MIC,[2]; [15],0.5 µg/mL
same,MIC,[2]; [16],0.25 µg/mL
same,MIC,[2]; [17],0.125 µg/mL
same,MIC,[2]; [18],0.5 µg/mL
same,MIC,[2]; [9],1 µg/mL
same,MIC,[5]; [19],0.125 µg/mL
same,MIC,[5]; [20],2 µg/mL
same,MIC,[5]; [21],2 µg/mL
same,MIC,[5]; [22],0.125 µg/mL
same,MIC,[6]; [23],0.0625 µg/mL
same,MIC,[7]; ATCC27853,0.125 µg/mL
same,AUC(0-inf),"[3]; both sexes, cynomolgus, iv",32.9 µg·h/mL
same,AUC(0-t),"[3]; both sexes, cynomolgus, iv",29.3 µg·h/mL
same,clearance,"[3]; both sexes, cynomolgus, iv",5.06 mL/min/kg
same,half-life,"[3]; both sexes, cynomolgus, iv",37.2 min
same,Cmax,[3]; [24],35.5 µg/mL
same,MRT,[3]; [25],38.4 min
same,Vd,[3]; [26],0.27 L/kg
same,Tmax,[3]; both sexes,4.8 min
same,AUC last,[3],23.44 µg·h/mL
same,AUCinf,[3],25.64 µg·h/mL
same,CL,[3],6.5002 mL/min/kg
same,Cmax,[3],30.64 µg/mL
same,MRT,[3],37.2 min
same,Vd,[3],0.31334 L/kg
same,t1/2,[3],33.6 min
C[C@H](CN(CCCNC(=O)c1ccc(O)c(O)c1Cl)C(=O)c1ccc(O)c(O)c1Cl)[N+]1(CC2=C(C(=O)[O-])N3C(=O)[C@@H](NC(=O)/C(=N\OC(C)(C)C(=O)O)c4csc(N)n4)[C@H]3SC2)CCCC1 [Compound 2],MIC,"[1]; strain FDA-CDC AR-BANK#0036, AMR gene strB, OXA-65, OXA-24, strA, sul2",0.5 µg/mL
same,MIC,[1]; [12],0.125 µg/mL
same,MIC,"[1]; strain FDA-CDC AR-BANK#0063, AMR gene OXA-23, OXA-65, OXA-24, sul2",4 µg/mL
same,MIC,[1]; [13],0.25 µg/mL
same,MIC,"[1]; strain FDA-CDC AR-BANK#0101, AMR gene strB, OXA-65, OXA-24, strA, sul2",1 µg/mL
same,MIC,[2]; [15],1 µg/mL
same,MIC,[2]; [16],0.25 µg/mL
same,MIC,[2]; [17],0.5 µg/mL
same,MIC,[2]; [18],1 µg/mL
same,MIC,[2]; [9],1 µg/mL
same,MIC,[5]; [19],0.5 µg/mL
same,MIC,"[5]; strain FDA-CDC AR-BANK#0441, AMR gene KPC-2",8 µg/mL
same,MIC,"[5]; strain FDA-CDC AR-BANK#0444, AMR gene aac(6′)-Il, dfrB5, OXA-4, tet(G), VIM-2",4 µg/mL
same,MIC,[5]; [22],0.25 µg/mL
same,MIC,[6]; ATCC25922,0.125 µg/mL
same,MIC,[7]; ATCC27853,0.0625 µg/mL
CC(C)(O/N=C(\C(=O)N[C@@H]1C(=O)N2C(C(=O)[O-])=C(C[N+]3(CCCN(CCCNC(=O)c4ccc(O)c(O)c4Cl)C(=O)c4ccc(O)c(O)c4Cl)CCCC3)CS[C@H]12)c1csc(N)n1)C(=O)O [Compound 3],MIC,[1]; [11],0.25 µg/mL
same,MIC,[1]; [12],0.125 µg/mL
same,MIC,[1]; [8],> 32 µg/mL
same,MIC,[1]; [13],0.125 µg/mL
same,MIC,[1]; [14],0.5 µg/mL
same,MIC,[2]; [15],0.5 µg/mL
same,MIC,[2]; [16],0.125 µg/mL
same,MIC,[2]; [17],0.125 µg/mL
same,MIC,[2]; [18],0.25 µg/mL
same,MIC,[2]; [9],0.5 µg/mL
same,MIC,[5]; [19],0.125 µg/mL
same,MIC,[5]; [20],2 µg/mL
same,MIC,[5]; [21],2 µg/mL
same,MIC,"[5]; strain FDA-CDC AR-BANK#0457, AMR gene aadA6, VIM-2, read-out: MIC",0.25 µg/mL
same,MIC,[6]; [23],0.0625 µg/mL
same,MIC,"[7]; ATCC27853, ID-CAMHB, control strain ATCC 27853, read-out: MIC",0.25 µg/mL
same,AUC(0-inf),"[3]; both sexes, cynomolgus, iv",166 µg·h/mL
same,AUC(0-t),"[3]; both sexes, cynomolgus, iv",149 µg·h/mL
same,clearance,"[3]; both sexes, cynomolgus, iv",1 mL/min/kg
same,half-life,"[3]; both sexes, cynomolgus, iv",154 min
same,Cmax,[3]; [24],55.2 µg/mL
same,MRT,[3]; [25],150 min
same,Vd,[3]; [26],0.223 L/kg
same,Tmax,[3]; both sexes,4.8 min
same,AUC last,[3],140.08 µg·h/mL
same,AUCinf,[3],153.20 µg·h/mL
same,CL,[3],1.088 mL/min/kg
same,Cmax,[3],48.60 µg/mL
same,MRT,[3],149 min
same,Vd,[3],0.21311 L/kg
same,t1/2,[3],136 min
same,AUMC0-inf,[4]; [27],86.9 h · h · ug · mL^−1
same,AUMC0-t,[4]; [27],80.3 h · h · ug · mL^−1
same,Kel,[4]; [27],1.04 h⁻¹
same,MRTPO,[4]; [27],47.4 min
same,AUMC0-inf,[4]; [10],880.4 h · h · ug · mL^−1
same,AUMC0-t,[4]; [10],871.4 h · h · ug · mL^−1
same,Kel,[4]; [10],1.64 h⁻¹
same,MRTPO,[4]; [10],47.8 min
same,AUC(0-inf),[4]; [27],110 µg·h/mL
same,AUC(0-t),[4]; [27],109 µg·h/mL
same,Cmax,[4]; [27],114 µg/mL
same,Tmax,[4]; [27],15 min
same,half-life,[4]; [27],39.9 min
same,AUC(0-inf),[4]; [10],1100 µg·h/mL
same,AUC(0-t),[4]; [10],1100 µg·h/mL
same,Cmax,[4]; [10],936 µg/mL
same,Tmax,[4]; [10],30 min
same,half-life,[4]; [10],25.3 min
